# Reference: a melting point compilation (Tetko et al.; mined from patent text by program, amines drawn as free bases though some values may be those of a salt)
# Residues, ends and D or L forms follow the SMILES beside them. *: point of attachment. Cbz = O=C(OCc1ccccc1)*; Bn = c1ccc(C*)cc1
row,melting point [°C],Structure (SMILES)
1,162 to 164,COCCNC(=O)c1ccc(-c2ccc3nnn(Cc4ccc5ncccc5c4)c3n2)cc1F
2,143 to 144,CC1CCCCC1OC(=O)c1cc(NCSc2ccccc2)ccc1Cl (configuration not stated)
3,146 to 147,Cc1oc(-c2ccccc2)nc1CCOc1ccc(C[C@@H](C(=O)O)n2ccc(-c3ccccc3)c2)cc1
4,126 to 128,COc1cc(S(C)=O)ccc1-c1nc2ccc(C(C)(C)CNS(C)(=O)=O)cc2[nH]1 (configuration not stated)
5,80,CCOC(OCC)c1ccc(C(O)(c2ccc3nc(OC)cc(-c4cccc(Cl)c4)c3c2)c2cncn2C)cc1 (configuration not stated)
6,91 to 92,CC(C)Cn1nc(-c2ccc(O)cc2O)c2cccc(C(F)(F)F)c21
7,148 to 150,COc1ccc(Cl)c(Oc2c(NS(=O)(=O)c3ccc4c(c3)OCO4)ncnc2OCCO)c1
8,268 to 274,COCC1COc2cc3ncnc(Nc4cccc(Br)c4)c3cc2O1 (configuration not stated)
9,208 to 210,O=C(O)c1ccc(/C=C/c2ccccc2-c2cccs2)cc1
10,44 to 45,COc1ccc2cc(C(C)C(=O)OCC(=O)OCCO[N+](=O)[O-])ccc2c1 (configuration not stated)
11,215 to 218,Nc1ncc(C#Cc2ccc(Cl)cc2)c(N[C@H]2CC[C@H](O)CC2)n1
12,234 to 236,N#Cc1cnccc1O
13,161 to 165,S=C(N1CCC(c2ccccc2)(c2ccccc2)CC1)n1ccnc1
14,207 to 208,CCOC(=O)c1sc(SC)c2c1CCc1cn[nH]c1-2
15,155 to 156,CC(=O)NCc1ccc(CN2CCN(c3ccc(Cl)cn3)CC2)cc1
16,136 to 137,O=C1O[C@@H](c2ccc(F)cc2)[C@@H](Cc2ccc(C(F)(F)F)cc2)N1Cc1cccc2ccccc12 (racemic)
17,140 to 143,COC(=O)c1ccc2c(c1)C(=O)C(Cc1cccc(C(=O)O)c1)O2 (configuration not stated)
18,164 to 166,CCOC(=O)c1cn(C[C@@H]2CN(c3ccc(N4CCC(=CC#N)CC4)c(F)c3)C(=O)O2)nn1
19,226,Cc1nc2c3c(ccc2n1C)[C@@H](OCCF)[C@H](O)[C@@H](c1ccccc1)O3
20,155 to 165,NC(=S)NN=C(COC(=O)Nc1ccccc1)c1ccccc1
21,121 to 124,CCOC(=O)C1=C(C(=O)OCC)C(c2cccc([N+](=O)[O-])c2)C(C(=O)OCC)=C(C(=O)OCC)N1
22,168,CCOC(=O)COc1cccc2cc(S(N)(=O)=O)sc12
23,223,Cn1c(=O)c(NS(C)(=O)=O)c(N2CCN(C(=O)c3cccs3)CC2)c2ccccc21
24,41,O=C(Nc1ccccc1SCc1ncon1)OCc1ccccc1

row,melting point [°C],Structure (SMILES)
1,181 to 182,CC(C)n1cc(C#N)c(-c2ccc([N+](=O)[O-])o2)n1
2,310 to 312,O=C(O)c1ccc2c(c1)C(=O)C(=Cc1cccs1)O2
3,> 250,Cc1ccc2sc3cc(C(=O)O)ccc3c(=O)c2c1
4,168 to 172,CCCc1nc2c(N)nc3cc(OCCCCCCNC(C)=O)ccc3c2n1CCCCNS(C)(=O)=O
5,133 to 135,CC(=O)Oc1ccc(C(C)=NOCCOc2ccc(CC3SC(=O)NC3=O)cc2)cc1 (configuration not stated)
6,182 to 188,CCNC(=O)C(COCc1ccccc1)NC(=O)C(Cc1ccc(OCc2ccccc2)cc1)NC(=O)C(Cc1c[nH]cn1)NC(=O)OCc1ccccc1 (stereo not drawn) (Cbz-His-Tyr(Bn)-Ser(Bn)-NHEt; configuration not given here)
7,87 to 88,Nc1c(Cl)cccc1SSc1cccc(Cl)c1N
8,152 to 153,O=C(c1ccccc1)c1cc2ccnc(Cl)c2[nH]1
9,209 to 211,FC(F)c1nc2ccccc2n1-c1nc(-c2cncnc2)cc(N2CCOCC2)n1
10,177 to 178,NC(=O)c1ccc(OCC(F)(F)F)cc1
11,76 to 78,CCN(C(=O)OC)c1c(C(=O)c2cnoc2C2CC2)ccc(Cl)c1Cl
12,173 to 174,COC(=O)c1[nH]c2c(C)ccc(Cl)c2c1C(=O)OC
13,168 to 172,CC(C)(C)c1ccc(S(=O)(=O)N2c3ccc(F)cc3CC2C(=O)NCCc2ccccc2)cc1 (configuration not stated)
14,182 to 184,COC(=O)c1ncc(C(=O)O)cc1Cl
15,238 to 242,CC(=O)N1CCc2c(c3ccc(-n4ccc(-c5ccc(C(F)(F)F)nc5)cc4=O)nc3n2C)C1
16,165 to 169,Cc1ccc(CSCCCCCOc2ccc(C3=C(c4ccccc4)CCCc4cc(O)ccc43)cc2)cc1
17,183 to 184,Cc1ccc(NC(=O)Nc2ccc(Oc3cc(Cl)ncn3)cc2)cc1C(F)(F)F
18,130,COCCCS(=O)(=O)NC(=O)/C=C/c1ccc(OC(C)C)cc1Oc1ncc(C(F)(F)F)cc1Cl
19,102 to 103,CC(=O)N1CCN(c2cccc(F)n2)CC1
20,63.5 to 65.5,COc1ccc(C(N)CCO)cc1OC (configuration not stated)
21,104 to 105,CCOC(=O)C1CCn2c(cc3cc(OC)ccc32)C1 (configuration not stated)
22,75 to 79,COC(=O)c1ccc(OCCNC(=O)C2Cc3ccccc3N2S(=O)(=O)c2ccc(-c3cccc(C(F)(F)F)c3)cc2)cc1C(F)(F)F (configuration not stated)
23,146 to 149,Cc1noc(NS(=O)(=O)c2c(Cl)sc(Cl)c2Br)c1Br
24,148,C=CCC(c1ccc(C(O)(C(F)(F)F)C(F)(F)F)cc1)S(=O)(=O)c1ccccc1 (configuration not stated)

row,melting point [°C],Structure (SMILES)
1,196,N#Cc1cc(F)cc(-c2cc([N+](=O)[O-])c3c(c2)C2(CCCCC2)C(=O)N3)c1
2,226 to 227,CCc1nc(-c2ncn(-c3cccc(O)c3)c2C)no1
3,354 to 356,COc1ccc(-n2nc(O)c3[nH]c4cc(Cl)ccc4c(=O)c3c2=O)c(C)c1
4,53 to 59,CC(C)C[C@H](NS(=O)(=O)c1ccccc1)C(=O)NC(C)(C)C(=O)c1c(-c2ccccc2)c1=O
5,95,Cc1ccc(=O)n(-c2cccc(C(F)(F)F)c2)c1
6,326 to 327,O=C(O)c1cnc2n(c1=O)CCc1ccc(O)cc1-2
7,> 250,CC[C@@H](C)[C@H](N)C(=O)N1CC(F)(F)C(F)(F)C1
8,64 to 67,CCCCCCCCCCCCSCC(CO)NC(=O)CCCCCCCCCC (configuration not stated)
9,227 to 229,CCOC(=O)c1cn(C2CC2)c2cc(Cl)c(F)c(Cl)c2c1=O
10,156 to 158,CCOc1nc2ccccc2nc1NC(=O)N1CCN(C(c2ccccc2)c2ccccc2)CC1
11,89 to 90,COC(=O)C(C)CNc1nc2ccccc2o1 (configuration not stated)
12,258,CC(C)(C)NOC(=O)c1n[nH]c2c(=O)[nH]c3cc(Cl)ccc3c(=O)c12
13,221 to 225,Cc1c(C(=O)Nc2ccc(Cl)c([N+](=O)[O-])c2)cnn1-c1ccc(Cl)cc1
14,144 to 146,Cc1ccccc1N1CCc2c(C)nc3c(O)cccc3c21
15,147 to 149,O=[N+]([O-])c1oc2ccccc2c1-n1ccnc1
16,130 to 135,CCCN(CCC)C1Cc2cc3c(cc2C1)C(=O)N(Cc1ccccn1)C3=O
17,241 to 247,CC12CC(O)CC1C1CCc3cc(O)ccc3C1C(c1ccccc1)C2 (configuration not stated)
18,120 to 123,CSc1nccc(-c2cc(C)ccc2N)n1
19,122 to 128,Cc1noc(NS(=O)(=O)c2ccccc2-c2ccc(-c3ncco3)cc2CN(C)C(=O)c2ccc(F)c(F)c2)c1C
20,252 to 253,CCOc1nsc(NC(=O)Oc2ccccc2)c1C#N
21,247 to 248,CCCCOc1ccccc1C1=NC(=O)C2=NC=NC2=N1
22,183 to 185,CC1=CC(c2cccc([N+](=O)[O-])c2)C2=C(CCCC2=O)N1 (configuration not stated)
23,244 to 246,CC(C)(C)C(NC(=O)c1ccc(Cl)cc1)Nc1c(Nc2ccncc2)c(=O)c1=O (configuration not stated)
24,50 to 52,CCC1Cc2ccc(C)cc2C1=O (configuration not stated)

row,melting point [°C],Structure (SMILES)
1,178 to 179,COc1ccc(N2CCN(Cc3n[nH]c4c(F)cccc34)CC2)cc1
2,94 to 96,CCc1cccc(C)c1NC(=S)NC(C)(C)C
3,290 to 295,Nc1ccnc(N2CCC(c3ccc(S(N)(=O)=O)cc3)CC2)c1
4,249 to 251,O=C(O)c1ccc(COCc2csc3nc(C(=O)NCc4ccc(F)c(F)c4)[nH]c(=O)c23)cc1
5,168,Nc1ccccc1C(=O)C=Cc1ccncc1
6,236 to 237,O=C(CCl)n1ccc2cc(F)ccc21
7,91 to 92,COc1cc2c(cc1O)CCN(C(=O)NCCN(C(C)C)C(C)C)C2c1ccccc1 (configuration not stated)
8,65 to 66.5,Nc1ccc(Oc2cccc(C(F)(F)F)c2Cl)cc1
9,128,Cc1nnc(N(Cc2ccccc2)C(=O)Cc2ccccc2)s1
10,104 to 105,O=C(O)c1cnn(CCCCN2CCN(c3ncccn3)CC2)c1
11,131 to 133,CCCCN(CC)CC(=O)N1c2ccccc2N(C)C(=O)c2cncnc21
12,98 to 100,CS(=O)(=O)c1ccc(-c2cc(C(F)F)cn2-c2ccc(F)cc2)cc1
13,207 to 209,NCc1ccc(Nc2n[nH]c3ncnc(Nc4cccc(Cl)c4)c23)cc1
14,79 to 80,Cc1cc(SCc2cc(-c3ccc(Cl)cc3)on2)ccc1OCC(=O)O
15,118 to 120,CCN(CC)CCOc1ccc(NC(=O)C#Cc2cccnc2)cc1Cl
16,231 to 233,CC(C)n1nc(-c2nc(C#N)c(N)nc2-c2ccccc2)ccc1=O
17,83 to 85,CN(C)C(=O)n1nc(C(C)(C)C)nc1SC(NS(C)(=O)=O)NS(C)(=O)=O
18,107 to 108,COC(=O)C(=CNc1ccc(F)c(F)c1OCC(C)O)C(=O)OC (configuration not stated)
19,188 to 189,O=C1CCN(Cc2ccc3ccccc3n2)CC1C(c1ccc(F)cc1)c1ccc(F)cc1 (configuration not stated)
20,58,CC[C@H](NC(=O)OC(C)(C)C)C(=O)OCCCCNc1cccc2c1C(=O)c1ccccc1C2=O
21,105 to 108,CCCCCCCCCCCC1Cc2c(cccc2C(=O)O)N1 (racemic)
22,90 to 96,Nn1c(C(F)(F)F)cc(=O)n(-c2cc(Oc3ncccc3[N+](=O)[O-])c(Cl)cc2F)c1=O
23,149 to 151,CCCc1c(OCCCOc2ccc(-c3csc(=S)[nH]3)c(OC)c2CCC)ccc2c1OC(C(=O)O)CC2 (configuration not stated)

row,Structure (SMILES),melting point [°C]
1,CC[C@@]1(O)C(=O)OCc2c1cc1n(c2=O)Cc2c-1nc1ccc(Cl)c3c1c2C(NC(C)=O)CN3 (some centres not stated),250 to 270
2,CCN(CC)C(=O)CP(=S)(c1ccccc1)c1ccccc1,108 to 110
